{
  "source": "patent US20130034522A1",
  "about": "“THERAPIES FOR TREATING HEPATITIS C VIRUS INFECTION” (priority 2010, published 2013)",
  "key": {"[1]": {"test": "PK parameters of VX-222 in Study 101 Part C and Study 102 Part A", "assay_type": "in vivo, human", "experimental": "In Part C of Study 101, VX-222 was administered as multiple doses of 750 mg b.i.d. to treatment-naïve subjects with chronic hepatitis C for 3 days. In addition, in Part A of Study 102, VX-222 was administered as multiple doses ranging from 250 mg to 750 mg BID and 1500 mg once a day to treatment-naïve subjects with chronic hepatitis C for 3 days."}, "Huh-7, ET replicon cells": {"system": "Huh-7, ET replicon cells", "test": "Drug combination luciferase assay (4-day, MacSynergy)", "assay_type": "cell-based, Hepatitis C virus", "details": "combination with VX-950, 4 days", "text": "Replicon cell lines Huh-7, ET cells derived from the Huh-7 hepatocarcinoma cell line are obtained from Dr. Ralf Bartenschlager (Bartenschlager, R. Innovation: Hepatitis C virus replicons: potential role for drug development. Nat. Rev. Drug Discov. 2002, 1, 911-916. Krieger, N.; Lohmann, V.; Bartenschlager, R. Enhancement of hepatitis C virus RNA replication by cell culture-adaptive mutations. J. Virol. 2001, 75, 4614-4624. Lohmann, V.; Korner, F.; Koch, J.-O.; Herian, U.; Theilmann, L.; Bartenschlager, R. Replication of subgenomic hepatitis C virus RNAs in a hepatoma cell line. Science. 1999, 285, 110-113.) (Reblikon GmbH, Gau-Odernheim, Germany). […]\nHuh-7, ET replicon cells are seeded in white opaque 96-well cell culture microtiter plates at sub-confluent density (3×10^3 cells per well) in a volume of 100 μL media. […] Plates are read for Luciferase counts using a luminometer (Wallac MicroBeta Trilux, Perkin Elmer™, MA, USA). […]"}, "[2]": {"details": "multiple doses, treatment-naïve chronic hepatitis C subjects"}},
  "note": "Several values for one entry are separate records, joined by “and”; a condition that tells them apart may be missing. Equal values may be shown once.",
  "data": [
    {"molecule": "CC1CCC(C(=O)N(c2cc(C#CC(C)(C)C)sc2C(=O)O)C2CCC(O)CC2)CC1", "note": "(stereo not drawn) [VX-222, 5-(3,3-Dimethylbut-1-ynyl)-3-[(trans-4-hydroxycyclohexyl)-(4-trans methylcyclohexanecarbonyl)amino]thiophene-2-carboxylic acid]", "values": [
      {"measurement": "VX-222 exposures versus dose", "setting": "[1]; 250 to 750 mg b.i.d.", "result": "increased in an approximately dose proportional manner"},
      {"measurement": "mean t1/2 across doses", "setting": "[1]; all doses", "result": "remained unchanged across all doses"},
      {"measurement": "VX-222 concentrations at the end of the dosing intervals", "setting": "[1]; all subjects", "result": "> 319", "unit": "ng/mL"},
      {"measurement": "accumulation index", "setting": "[1]; b.i.d. regimens", "result": "around 2 fold"},
      {"measurement": "half-life", "setting": "[1]; human, in vivo", "result": "~300", "unit": "min"},
      {"measurement": "Tmax", "setting": "[1]; human, in vivo, read-out: median tmax at steady state", "result": "2 to 6", "unit": "h"},
      {"measurement": "exposures in treatment-naïve HCV subjects compared to healthy subjects", "setting": "[1]; in vivo", "result": "around 2 fold"},
      {"measurement": "accumulation index for AUC", "setting": "[1]; [2]", "result": 1.90, "unit": "fold"},
      {"measurement": "accumulation index for Cmax", "setting": "[1]; [2]", "result": 1.75, "unit": "fold"},
      {"measurement": "time to steady state", "setting": "[1]; repeated measure analyses", "result": "≤ 3", "unit": "days"},
      {"measurement": "Results VX-950 (synergy class)", "setting": "Huh-7, ET replicon cells", "result": "Moderated synergy (50 uM^2%-100 uM^2%)"},
      {"measurement": "volume of synergy", "setting": "Huh-7, ET replicon cells; listed as 1", "result": "90 uM^2% and 86 uM^2%"}
    ]}
  ]
}
